Patent publication US11400063B2, “Early administration of low-dose colchicine after myocardial infarction” (INSTITUT DE CARDIOLOGIE DE MONTREAL, priority 2019, dated 2022)

System: patients recruited within 30 days after a myocardial infarction
Test: COLCOT time-to-treatment initiation (TTI) analysis
Format: in vivo, human
Procedure: (§1) The results of the COLCOT trial have been further analyzed to determine if time to treatment initiation (TTI) had any effect on the outcome of the treatment. Three different cutoffs for TTI were used in order to determine the association between early initiation of therapy and clinical outcomes. These cutoffs were determined based on the usual journey of patients with MI. The first 30-day post-MI timeline was divided into three independent periods of time, and analyzed as such: from day 0 to 3, referring to in-hospital management; from day 4 to 7, referring to early post-discharge period and from day 8 to 30, referring to late post-discharge period.
COLCOT was an international multicenter, randomized, double-blinded trial that randomly assigned patients to receive either low-dose colchicine (0.5 mg once daily) or placebo. The study protocol and main results have been published (see, Tardif et al., N Engl J Med 2019). […] Main exclusion criteria were severe heart failure, reduced left ventricular ejection fraction (<35%), recent stroke (<3 months), type 2 MI, recent (<3 years) or planned coronary artery bypass graft (CABG), history of cancer (<3 years), and inflammatory bowel disease or chronic diarrhea. All patients enrolled in the trial benefited from percutaneous coronary intervention whenever indicated and guidelines-directed management of CV disease prior to randomization (see. Tardif et al., N Engl J Med 2019).
The primary efficacy endpoint was a composite of CV death, resuscitated cardiac arrest, MI, stroke, or urgent hospitalization for angina requiring coronary revascularization. The secondary endpoints consisted of the components of the primary efficacy endpoint, all-cause death, and a composite of CV death, resuscitated cardiac arrest, MI, or stroke. Exploratory endpoints included all coronary revascularizations, including both elective and urgent coronary revascularizations.
as §1, with “Three” for “The results of the COLCOT trial have been further analyzed to determine if time to treatment initiation (TTI) had any effect on the outcome of the treatment. Three”
Both the TTI of less than 4 days and the TTI of less than 5 days was were calculated using a basic model (Table 4 and Table 6) as well as an adjusted model (Table 5 and Table 7) which is described below in the statistical analysis section. In all cases, the interaction p-value was not significant (p>0.05), meaning that the conclusion over Placebo vs. Colchicine group can be obtained directly from the respective p-values for HR. In other words, relationships within the placebo and colchicine groups with TTI are both linear/parallel and the interpretation is straightforward.
For the present TTI analysis, the data were centrally analyzed by an independent academic biostatistics center at the Montreal Health Innovations Coordinating Center. The analysis was conducted amongst patients who received at least one dose of the study medication (referred to as the safety population in the main protocol, FIG. 1). TTI was defined as the length of time in days between the index MI and the initiation of the study medication, and three specific cutoffs were analyzed ([…], days 4 to […]). Early initiation of therapy was defined as TTI≤3 days. Baseline characteristics were summarized using counts and percentages for categorical variables and mean±standard deviation (SD) for continuous variables. For each baseline characteristic, comparisons were made using ANOVA for continuous variables and Chi-Square test for categorical variables according to TTI strata. […]

[1] = TTI 4-7 days, colchicine vs. placebo
[2] = TTI ≥ 8 days, colchicine vs. placebo
[3] = delay between randomization and index MI [0-4] days
[4] = delay between randomization and index MI [0-5] days
[5] = delay between randomization and index MI [5-30] days
[6] = delay between randomization and index MI [6-30] days

## COc1cc2c(c(OC)c1OC)-c1ccc(OC)c(=O)cc1[C@@H](NC(C)=O)CC2 [Colchicine, colchicine]
[1]
  Secondary Composite Endpoint, HR (95% CI): 1.04 (0.53-2.03); p = 0.919
  Stroke, HR (95% CI): 0.28 (0.03-2.71); p = 0.272
  Urgent hospitalization for angina requiring coronary revascularization, HR (95% CI): 0.63 (0.18-2.24); p = 0.476
TTI ≥ 8 days, N = 2748
  All Coronary Revascularizations, % of patients: 5.3%
  All Coronary Revascularizations, no. of patients: 72 no.
  All-cause death, % of patients: 1.9%
  All-cause death, no. of patients: 26 no.
  MI, % of patients: 3.8%
  MI, no. of patients: 52 no.
  Primary composite endpoint, % of patients: 5.7%
  Primary composite endpoint, no. of patients: 77 no.
  Resuscitated cardiac arrest, % of patients: 0.1%
  Resuscitated cardiac arrest, no. of patients: 2 no.
  Secondary Composite Endpoint, % of patients: 4.9%
  Secondary Composite Endpoint, no. of patients: 67 no.
  Stroke, % of patients: 0.1%
  Stroke, no. of patients: 2 no.
  Urgent hospitalization for angina requiring coronary revascularization, % of patients: 1.1%
  Urgent hospitalization for angina requiring coronary revascularization, no. of patients: 15 no.
[2]
  All Coronary Revascularizations, HR (95% CI): 0.81 (0.59-1.10); p = 0.172
  All-cause death, HR (95% CI): 0.90 (0.53-1.51); p = 0.684
  MI, HR (95% CI): 0.93 (0.64-1.35); p = 0.710
  Primary composite endpoint, HR (95% CI): 0.82 (0.61-1.11); p = 0.200
  Resuscitated cardiac arrest, HR (95% CI): 1.02 (0.14-7.22); p = 0.986
  Secondary Composite Endpoint, HR (95% CI): 0.92 (0.66-1.28); p = 0.629
  Stroke, HR (95% CI): 0.19 (0.04-0.84); p = 0.029
  Urgent hospitalization for angina requiring coronary revascularization, HR (95% CI): 0.61 (0.32-1.16); p = 0.131
[0-4] days, adjusted Cox model, colchicine vs. placebo
  Time to first positively adjudicated primary endpoint, HR (95% CI): 0.58 (0.36; 0.89)
[0-4] days, adjusted Cox model, colchicine vs. placebo, listed as colchicine
  Time to first positively adjudicated primary endpoint, HR (95% CI): 0.58
[0-4] days, basic Cox model, colchicine vs. placebo
  Time to first positively adjudicated primary endpoint, HR (95% CI): 0.57 (0.37; 0.87)
[0-5] days, adjusted Cox model, colchicine vs. placebo, listed as colchicine
  Time to first positively adjudicated primary endpoint, HR (95% CI): 0.68 (0.45-1.02)
[0-5] days, basic Cox model, colchicine vs. placebo
  Time to first positively adjudicated primary endpoint, HR (95% CI): 0.67 (0.45; 1.01)
[5-20] days, adjusted Cox model, colchicine vs. placebo
  Time to first positively adjudicated primary endpoint, HR (95% CI): 0.84 (0.64; 1.11)
[5-20] days, basic Cox model, colchicine vs. placebo
  Time to first positively adjudicated primary endpoint, HR (95% CI): 0.83 (0.63; 1.09)
[6-30] days, adjusted Cox model, colchicine vs. placebo
  Time to first positively adjudicated primary endpoint, HR (95% CI): 0.35 (0.60, 1.05)
[6-30] days, basic Cox model, colchicine vs. placebo
  Time to first positively adjudicated primary endpoint, HR (95% CI): 0.78 (0.59; 1.03)
Colchicine initiated between days 0 and 3, vs placebo
  reduction in the risk of the composite primary endpoint: 48%
[3]
  Positively adjudicated primary endpoint No, % of patients: (95.6%)
  Positively adjudicated primary endpoint No, no. of patients: 734 no.
  Positively adjudicated primary endpoint Yes, % of patients: (4.4%)
  Positively adjudicated primary endpoint Yes, no. of patients: 34 no.
[4]
  Positively adjudicated primary endpoint No, % of patients: (95.3%)
  Positively adjudicated primary endpoint No, no. of patients: 819 no.
  Positively adjudicated primary endpoint Yes, % of patients: (4.7%)
  Positively adjudicated primary endpoint Yes, no. of patients: 40 no.
[5]
  Positively adjudicated primary endpoint No, % of patients: (94.1%)
  Positively adjudicated primary endpoint No, no. of patients: 1463 no.
  Positively adjudicated primary endpoint Yes, % of patients: (5.9%)
  Positively adjudicated primary endpoint Yes, no. of patients: 91 no.
[6]
  Positively adjudicated primary endpoint No, % of patients: (94.2%)
  Positively adjudicated primary endpoint No, no. of patients: 1378 no.
  Positively adjudicated primary endpoint Yes, % of patients: (5.8%)
  Positively adjudicated primary endpoint Yes, no. of patients: 85 no.
Early initiation of low-dose colchicine
  reduction of secondary efficacy endpoint (CV death, resuscitated cardiac arrest, MI or stroke): 45%
